Reference: patent US10597388B2, “Pyridazinone herbicides” (FMC CORPORATION, priority 2014, dated 2020)

Experiments:
Assay in all cases: Test D controlled growth environment herbicide test, pre- and postemergence
Format in all cases: in vivo
[1] = test system: bromegrass, downy (downy bromegrass, Bromus tectorum)
Procedure, shortened: (§1)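 Pre-emergence: seeds sown in silt loam soil were sprayed with compound in a non-phytotoxic solvent mix containing surfactant. Post-emergence: plants at 2 to 18 cm (1- to 4-leaf stage) in peat moss/vermiculite medium got the same formulation. Visual 0–100 rating versus controls after 14 to 21 d.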

[2] = test system: radish, wild (wild radish, Raphanus raphanistrum)
Procedure, shortened: as §1

[3] = test system: deadnettle (henbit deadnettle, Lamium amplexicaule)
Procedure, shortened: as §1

[4] = test system: chamomile (scentless chamomile, Matricaria inodora)
Procedure, shortened: as §1

[5] = test system: oat, wild (wild oat, Avena fatua)
Procedure, shortened: as §1

[6] = test system: barley, spring (spring barley, Hordeum vulgare)
Procedure, shortened: as §1

[7] = test system: wheat, spring (spring wheat, Triticum aestivum)
Procedure, shortened: as §1

[8] = test system: field violet (Viola arvensis)
Procedure, shortened: as §1

[9] = test system: windgrass (Apera spica-venti)
Procedure, shortened: as §1

[10] = test system: oilseed rape (Brassica napus)
Procedure, shortened: as §1

[11] = test system: mustard, wild (wild mustard, Sinapis arvensis)
Procedure, shortened: as §1

[12] = test system: speedwell (bird's-eye speedwell, Veronica persica)
Procedure, shortened: as §1

[13] = test system: lambsquarters (Chenopodium album)
Procedure, shortened: as §1

[14] = Postemergence, 31 g ai/ha, scale 0 to 100 (0 no effect, 100 complete control)
[15] = Postemergence, 125 g ai/ha, visual rating on scale 0 (no effect) to 100 (complete control), 14 to 21 d
[16] = Postemergence, 250 g ai/ha, scale 0 to 100 (0 no effect, 100 complete control)
[17] = Preemergence, 62 g ai/ha, scale 0 to 100 (0 no effect, 100 complete control)
[18] = Preemergence, 125 g ai/ha, scale 0 to 100 (0 no effect, 100 complete control)
[19] = Preemergence, 250 g ai/ha, scale 0 to 100 (0 no effect, 100 complete control)
[20] = postemergence, 62 g ai/ha, scale 0 to 100, 0 no effect, 100 complete control

CCOC(=O)Oc1c(C)nn(C)c(=O)c1-c1c(C)ccc2ccccc12 [Compound 73]
Bromegrass, Downy plant response rating [1, 14]: 25
Plant response rating, Bromegrass, Downy [1, 15]: 70
Plant response rating, Bromegrass, Downy [1, 16]: 85
Plant response rating (scale of 0 to 100), Bromegrass, Downy ([1]; Preemergence, 31 g ai/ha): 20
Plant response rating, Bromegrass, Downy [1, 17]: 40
Plant response rating, Bromegrass, Downy [1, 18]: 50
Plant response rating, Bromegrass, Downy [1, 19]: 90
Plant response rating, Bromegrass, Downy [1, 20]: 55
Radish, Wild plant response rating [2, 14]: 75
Plant response rating, Radish, Wild [2, 15]: 100
Plant response rating, Radish, Wild [2, 16]: 100
Plant response rating (scale of 0 to 100), Radish, Wild ([2]; Preemergence, 31 g ai/ha): 30
Plant response rating, Radish, Wild [2, 17]: 75
Plant response rating, Radish, Wild [2, 18]: 100
Plant response rating, Radish, Wild [2, 19]: 90
Plant response rating, Radish, Wild [2, 20]: 95
Deadnettle plant response rating [3, 14]: 75
Plant response rating, Deadnettle [3, 15]: 100
Plant response rating, Deadnettle [3, 16]: 100
Plant response rating (scale of 0 to 100), Deadnettle ([3]; Preemergence, 31 g ai/ha): 0
Plant response rating, Deadnettle [3, 17]: 0
Plant response rating, Deadnettle [3, 18]: 70
Plant response rating, Deadnettle [3, 19]: 100
Plant response rating, Deadnettle [3, 20]: 90
Chamomile plant response rating [4, 14]: 70
Plant response rating, Chamomile [4, 15]: 90
Plant response rating, Chamomile [4, 16]: 100
Plant response rating, Chamomile [4, 20]: 85
Oat, Wild plant response rating [5, 14]: 85
Plant response rating, Oat, Wild [5, 15]: 95
Plant response rating, Oat, Wild [5, 16]: 100
Plant response rating (scale of 0 to 100), Oat, Wild ([5]; Preemergence, 31 g ai/ha): 75
Plant response rating, Oat, Wild [5, 17]: 90
Plant response rating, Oat, Wild [5, 18]: 85
Plant response rating, Oat, Wild [5, 19]: 100
Plant response rating, Oat, Wild [5, 20]: 95
Barley, Spring plant response rating [6, 14]: 10
Plant response rating, Barley, Spring [6, 15]: 30
Plant response rating, Barley, Spring [6, 16]: 40
Plant response rating (scale of 0 to 100), Barley, Spring ([6]; Preemergence, 31 g ai/ha): 0
Plant response rating, Barley, Spring [6, 17]: 10
Plant response rating, Barley, Spring [6, 18]: 0
Plant response rating, Barley, Spring [6, 19]: 60
Plant response rating, Barley, Spring [6, 20]: 25
Wheat, Spring plant response rating [7, 14]: 45
Plant response rating, Wheat, Spring [7, 15]: 70
Plant response rating, Wheat, Spring [7, 16]: 85
Plant response rating (scale of 0 to 100), Wheat, Spring ([7]; Preemergence, 31 g ai/ha): 15
Plant response rating, Wheat, Spring [7, 17]: 55
Plant response rating, Wheat, Spring [7, 18]: 70
Plant response rating, Wheat, Spring [7, 19]: 85
Plant response rating, Wheat, Spring [7, 20]: 55
Field Violet plant response rating [8, 14]: 90
Plant response rating, Field Violet [8, 15]: 90
Plant response rating, Field Violet [8, 16]: 90
Plant response rating (scale of 0 to 100), Field Violet ([8]; Preemergence, 31 g ai/ha): 35
Plant response rating, Field Violet [8, 17]: 75
Plant response rating, Field Violet [8, 18]: 80
Plant response rating, Field Violet [8, 19]: 95
Plant response rating, Field Violet [8, 20]: 95
Windgrass plant response rating [9, 14]: 70
Plant response rating, Windgrass [9, 15]: 75
Plant response rating, Windgrass [9, 16]: 85
Plant response rating (scale of 0 to 100), Windgrass ([9]; Preemergence, 31 g ai/ha): 40
Plant response rating, Windgrass [9, 17]: 65
Plant response rating, Windgrass [9, 18]: 90
Plant response rating, Windgrass [9, 19]: 95
Plant response rating, Windgrass [9, 20]: 70
Oilseed Rape plant response rating [10, 14]: 65
Plant response rating, Oilseed Rape [10, 15]: 75
Plant response rating, Oilseed Rape [10, 16]: 95
Plant response rating (scale of 0 to 100), Oilseed Rape ([10]; Preemergence, 31 g ai/ha): 0
Plant response rating, Oilseed Rape [10, 17]: 5
Plant response rating, Oilseed Rape [10, 18]: 0
Plant response rating, Oilseed Rape [10, 19]: 70
Plant response rating, Oilseed Rape [10, 20]: 70
Mustard, Wild plant response rating [11, 14]: 85
Plant response rating, Mustard, Wild [11, 15]: 100
Plant response rating, Mustard, Wild [11, 16]: 100
Plant response rating (scale of 0 to 100), Mustard, Wild ([11]; Preemergence, 31 g ai/ha): 65
Plant response rating, Mustard, Wild [11, 17]: 80
Plant response rating, Mustard, Wild [11, 18]: 100
Plant response rating, Mustard, Wild [11, 19]: 100
Plant response rating, Mustard, Wild [11, 20]: 100
Speedwell plant response rating [12, 14]: 70
Plant response rating, Speedwell [12, 15]: 100
Plant response rating, Speedwell [12, 16]: 100
Plant response rating (scale of 0 to 100), Speedwell ([12]; Preemergence, 31 g ai/ha): 100
Plant response rating, Speedwell [12, 17]: 100
Plant response rating, Speedwell [12, 18]: 100
Plant response rating, Speedwell [12, 19]: 100
Plant response rating, Speedwell [12, 20]: 100
Lambsquarters plant response rating [13, 14]: 95
Plant response rating, Lambsquarters [13, 15]: 100
Plant response rating, Lambsquarters [13, 16]: 100
Plant response rating (scale of 0 to 100), Lambsquarters ([13]; Preemergence, 31 g ai/ha): 95
Plant response rating, Lambsquarters [13, 17]: 95
Plant response rating, Lambsquarters [13, 18]: 95
Plant response rating, Lambsquarters [13, 19]: 100
Plant response rating, Lambsquarters [13, 20]: 95
